According to US20100004159A1, “SUBSTITUTED IMIDAZOLONE DERIVATIVES, PREPARATIONS AND USES” (GENFIT, priority 2006, published 2010):

System: PPARs target genes
Assay: Expression of PPAR target genes by quantitative RT-PCR in db/db mouse tissue
Format: in vivo
Conditions: db/db mice, 50 mpk for 28 days
Protocol: Samples of hepatic tissue and adipose epididymal tissue were taken and frozen immediately in liquid nitrogen then conserved at −80° C. for later analysis.
Total RNA was extracted from liver fragments by using a NucleoSpine 96 RNA kit (Macherey Nagel, Hoerdt, France) according to the manufacturer's instructions.
The total RNA of the adipose tissue was extracted from tissue fragments with a method using guanidine thiocyanate. The tissues were briefly homogenized in 5 mL of a lysis buffer (guanidine thiocyanate 4M, EDTA pH8 10 mM, Tris HCl pH 7.5 50 mM and b-mercaptoethanol 1.4%) using polytron. To separate the layers, 500 μL of sodium acetate 2M pH4, 5 mL of phenol, and 2 mL of a mixture of chloroform/isoamylic alcohol (49:1) were added. After centrifugation, the aqueous layer was collected and the RNA was precipitated in the presence of isopropanol. After a second precipitation, the RNA was washed with ethanol 70°, dried, then suspended again in an volume of water free of RNase. A step of purification/DNase I treatment of the RNA was then carried out by using NucleoSpin® 96 RNA kit (Macherey-Nagel) according to the manufacturer's instructions. 1 μg of total RNA (quantified by using the Ribogreen RNA quantification kit (Molecular Probes)) was then reverse-transcribed into cDNA by means of a 1 hour reaction at 37° C. in a total volume of 20 μl containing a buffer 1× (Sigma), 1.5 mM of DTT, 0.18 mM, of dNTPs (Promega), 200 ng of pdN6 (Amersham), 30 U of RNase inhibitor (Sigma), and 1 μl of MMLV-RT (Sigma). The quantitative PCR experiments were carried out using the MyiQ Single-Color Real-Time PCR Detection System (Biorad, Marnes-la-Coquette, France) and were performed using the iQ SYBR Green Supermix kit according to the manufacturer's recommendations, in 96-well plates in 5 μl of a diluted reverse transcription solution at a hybridization temperature of 55° C. Primer pairs specific to the studied genes were used:
The quantity of emitted fluorescence is directly proportional to the quantity of cDNA present at the beginning of the reaction and amplified during the PCR. For each target studied, a range of solutions is performed with successive dilutions of a mixture made up of a few μl of different reverse-transcription solutions. The relative levels of expression of each target are thus determined by using efficiency curves obtained with the points relative to the range.
The expression levels of the genes of interest were then normalized, in the hepatic tissue with respect to the level expression of reference gene 36B4 (whose specific primers are: sense primer: 5′-[…]-3′ (SEQ ID NO: 15) and antisense primer: 5′-[…]-3′ (SEQ ID NO: 16)), and in the adipose tissue with respect to reference gene 18S (whose specific primers are: sense primer: 5′-[…]-3′ (SEQ ID NO: 17) and antisense primer: 5′-[…]-3′ (SEQ ID NO: 18)). The induction factor was then calculated for each sample. The higher the induction factor is, the more the compound promotes gene expression. The final result is represented as the average of the induction values within each experimental group.

For `CCCCC1=NC2(CCCC2)C(=O)N1Cc1ccc(-c2cccc(OC(C)(C)C(=O)O)c2)cc1` [Compound 1, 2-butyl-1-[(3′-((1-carboxy-1,1-dimethylmethyl)oxy)biphenyl-4-yl)methyl]-4-spirocyclopentyl-1H-imidazol-5(4H)-one], the “hepatic expression of the gene coding for CPT1 b” value was “significant increase”, the “hepatic expression of the gene coding for PDK-4” value was “significant increase” and the “expression of the gene coding for ApoCIII” value (liver) was “significant decrease”. The “expression of the gene coding for FBb” value (liver) was “significant decrease”.
